Data as given in ChEMBL document CHEMBL1201862, “PubChem BioAssay data set” (2004).
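Method: 48-hour compound exposure of cells in 96-well plates, five concentrations, linear interpolation of endpoints. GI50 = concentration required for 50% inhibition of growth.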 Active and inactive are the calls of the source. Rule as the data show it: active = GI50 up to about 1.1 µM and inactive = higher.

Tests used:
Assay in all cases: NCI anticancer screen, dose series, 48 h
[1] = test system: 786-0
[2] = test system: A498
[3] = test system: A549
[4] = test system: ACHN
[5] = test system: BT-549
[6] = test system: CAKI-1
[7] = test system: CCRF-CEM
[8] = test system: COLO 205
[9] = test system: DU-145
[10] = test system: EKVX
[11] = test system: HCC 2998
[12] = test system: HCT-116
[13] = test system: HCT-15
[14] = test system: HL-60
[15] = test system: HOP-62
[16] = test system: HOP-92
[17] = test system: HT-29
[18] = test system: Hs-578T
[19] = test system: IGROV-1
[20] = test system: K562
[21] = test system: KM12
[22] = test system: LOX IMVI
[23] = test system: M14
[24] = test system: MCF7
[25] = test system: MDA-MB-231
[26] = test system: MDA-MB-435
[27] = test system: MDA-N
[28] = test system: MOLT-4
[29] = test system: Malme-3M
[30] = test system: NCI-H226
[31] = test system: NCI-H23
[32] = test system: NCI-H522
[33] = test system: NCI/ADR-RES
[34] = test system: OVCAR-3
[35] = test system: OVCAR-4
[36] = test system: OVCAR-5
[37] = test system: OVCAR-8
[38] = test system: PC-3
[39] = test system: RPMI-8226
[40] = test system: SF-268
[41] = test system: SF-295
[42] = test system: SF-539
[43] = test system: SK-MEL-28
[44] = test system: SK-MEL-2
[45] = test system: SK-MEL-5
[46] = test system: SK-OV-3
[47] = test system: SN12C
[48] = test system: SNB-19
[49] = test system: SNB-75
[50] = test system: SR
[51] = test system: SW-620
[52] = test system: T47D
[53] = test system: TK-10
[54] = test system: U-251
[55] = test system: UACC-257
[56] = test system: UACC-62
[57] = test system: UO-31
[58] = test system: NCI-H460

With `CCOC(=O)P(=O)(O)c1ccc(N(C)Cc2ccccc2)cc1` the GI50 [1] was > 100 µM (inactive), the GI50 [2] was > 100 µM (inactive) and the GI50 [3] was > 100 µM (inactive). The GI50 [4] was > 100 µM (inactive), the GI50 [5] was > 100 µM (inactive) and the GI50 [6] was > 100 µM (inactive). The GI50 [7] was > 100 µM (inactive), the GI50 [8] was > 100 µM (inactive) and the GI50 [9] was > 100 µM (inactive). The GI50 [10] was > 100 µM (inactive), the GI50 [11] was > 100 µM (inactive) and the GI50 [12] was > 100 µM (inactive). The GI50 [13] was > 100 µM, the GI50 [14] was > 100 µM (inactive) and the GI50 [15] was > 100 µM (inactive). For the same compound, the GI50 [16] was > 100 µM (inactive), the GI50 [17] was > 100 µM (inactive) and the GI50 [18] was > 100 µM (inactive). For the same compound, the GI50 [19] was > 100 µM (inactive), the GI50 [20] was > 100 µM (inactive) and the GI50 [21] was > 100 µM (inactive). The GI50 [22] was > 100 µM (inactive), the GI50 [23] was > 100 µM (inactive) and the GI50 [24] was > 100 µM (inactive). The GI50 [25] was > 100 µM (inactive), the GI50 [26] was > 100 µM (inactive) and the GI50 [27] was > 100 µM (inactive). The GI50 [28] was > 100 µM (inactive), the GI50 [29] was > 100 µM (inactive) and the GI50 [30] was > 100 µM (inactive). The GI50 [31] was > 100 µM (inactive), the GI50 [32] was > 100 µM (inactive) and the GI50 [33] was > 100 µM (inactive). For the same compound, the GI50 [34] was > 100 µM (inactive), the GI50 [35] was > 100 µM (inactive) and the GI50 [36] was > 100 µM (inactive). The GI50 [37] was > 100 µM (inactive), the GI50 [38] was > 100 µM (inactive) and the GI50 [39] was > 100 µM (inactive). For the same compound, the GI50 [40] was > 100 µM (inactive), the GI50 [41] was > 100 µM (inactive) and the GI50 [42] was > 100 µM (inactive). For the same compound, the GI50 [43] was > 100 µM (inactive), the GI50 [44] was > 100 µM (inactive) and the GI50 [45] was > 100 µM (inactive). For the same compound, the GI50 [46] was > 100 µM (inactive), the GI50 [47] was > 100 µM (inactive) and the GI50 [48] was > 100 µM (inactive). For the same compound, the GI50 [49] was > 100 µM (inactive), the GI50 [50] was > 100 µM (inactive) and the GI50 [51] was > 100 µM (inactive). For the same compound, the GI50 [52] was > 100 µM (inactive), the GI50 [53] was > 100 µM (inactive) and the GI50 [54] was > 100 µM (inactive). The GI50 [55] was > 100 µM (inactive), the GI50 [56] was > 100 µM (inactive) and the GI50 [57] was > 100 µM (inactive).
`Nc1ccc2nc(N)n[n+]([O-])c2c1` was tested, and the GI50 [1] was > 100 µM (inactive), the GI50 [2] was > 100 µM (inactive) and the GI50 [3] was > 100 µM (inactive). The GI50 [4] was > 100 µM (inactive), the GI50 [5] was > 100 µM (inactive) and the GI50 [6] was > 100 µM (inactive). The GI50 [7] was > 100 µM (inactive), the GI50 [8] was > 100 µM (inactive) and the GI50 [9] was > 100 µM (inactive). For the same compound, the GI50 [10] was > 100 µM (inactive), the GI50 [12] was > 100 µM (inactive) and the GI50 [13] was > 100 µM. For the same compound, the GI50 [14] was > 100 µM (inactive), the GI50 [15] was > 100 µM (inactive) and the GI50 [17] was > 100 µM (inactive). For the same compound, the GI50 [18] was > 100 µM (inactive), the GI50 [19] was > 100 µM (inactive) and the GI50 [20] was > 100 µM (inactive). The GI50 [21] was > 100 µM (inactive), the GI50 [22] was > 100 µM (inactive) and the GI50 [23] was > 100 µM (inactive). For the same compound, the GI50 [24] was > 100 µM (inactive), the GI50 [25] was > 100 µM (inactive) and the GI50 [26] was > 100 µM (inactive). The GI50 [27] was > 100 µM (inactive), the GI50 [28] was > 100 µM (inactive) and the GI50 [30] was > 100 µM (inactive). For the same compound, the GI50 [31] was > 100 µM (inactive), the GI50 [58] was > 100 µM (inactive) and the GI50 [32] was > 100 µM (inactive). For the same compound, the GI50 [33] was > 100 µM (inactive), the GI50 [34] was > 100 µM (inactive) and the GI50 [35] was > 100 µM (inactive). The GI50 [36] was > 100 µM (inactive), the GI50 [37] was > 100 µM (inactive) and the GI50 [38] was > 100 µM (inactive). The GI50 [39] was > 100 µM (inactive), the GI50 [40] was > 100 µM (inactive) and the GI50 [41] was 10 µM (inactive). The GI50 [42] was > 100 µM (inactive), the GI50 [43] was > 100 µM (inactive) and the GI50 [44] was > 100 µM (inactive). For the same compound, the GI50 [45] was > 100 µM (inactive), the GI50 [46] was > 100 µM (inactive) and the GI50 [47] was > 100 µM (inactive). For the same compound, the GI50 [48] was > 100 µM (inactive), the GI50 [49] was 92.7 µM (inactive) and the GI50 [50] was > 100 µM (inactive). For the same compound, the GI50 [51] was > 100 µM (inactive), the GI50 [52] was > 100 µM (inactive) and the GI50 [53] was > 100 µM (inactive). The GI50 [54] was > 100 µM (inactive), the GI50 [55] was > 100 µM (inactive) and the GI50 [56] was > 100 µM (inactive). The GI50 [57] was > 100 µM (inactive).
